These results are taken from patent US20250025500A1, “PHOSPHATASE INHIBITORS AS NK CELLS MODULATORS FOR THE TREATMENT OF CANCER” (Kanyr Pharma Inc., priority 2021, published 2025).

In experiment [1] the test system is NK-92 cells against Reh cells. The experiment in a line: NK-92 cytolytic assay against NK resistant Reh target cells. The experiment is classed as cell-based, Human. The following applies: 30 μM three days, IL-2 100 IU/mL, 3 h assay. The method, then: Human NK cell line NK-92 was purchased from American Type Culture Collection (ATCC) and cultured in α-MEM Essential Medium (no ribonucleoside and deoxyribonucleoside) supplemented with 0.2 mM Myo-inositol, 0.02 mM Folic Acid, 0.1 mM β-mercaptoethanol, 1% of Non-essential Amino Acids, 1×L-Glutamax, 1% of Penicillin/Streptomycin, 12.5% of heat-inactivated Horse, and 12.5% of heat-inactivated Characterized Fetal Bovine Serum or FBS. The media was supplemented freshly with 200 IU/mL of IL-2 upon cell thawing for one passage and 100 IU/mL of IL-2 for cell expansion. Human tumor cell lines K-562 and Reh were purchased from ATCC and were cultured in RPM11640 Medium supplemented with 1% of Penicillin/Streptomycin and 10% of heat inactivated FBS. HEK293T/17 cells and HCT116 cells were cultured in Dulbecco's Modified Eagle's Medium (DMEM) High Glucose Medium supplemented with 1% of Penicillin/Streptomycin and 10% of FBS. All cell lines were maintained in 5% CO2, 37° C. incubator, except that NK-92 were maintained in 6.5% CO2 incubator at 37° C. […]
NK-92 anti-tumor cytolysis function was assessed by flow cytometry-based analysis. […] Flow cytometry sample acquisition was performed with BDO LSRFortessa™ with a UV laser at Flow Cytometry Core Facility, McGill University, and data was analyzed with FlowJo™ 10.7.1 and summarized with Prism™ 9 (GraphPad™). […]

Experiment [2] concerns NK-92 cells. The experiment in a line: NK-92 viability and proliferation under inhibitor treatment. The conditions noted are these: various IL-2 concentration, vs vehicle control. The experiment is classed as cell-based, Human.
Experiment [3] relates to NK-92 cells. Put plainly: Degranulation assay of NK-92 (CD107a, perforin, granzyme B). The experiment is classed as cell-based, Human. The protocol:
(§1) NK-92 cells pre-treated with L598 (30 μM) or vehicle control were stimulated with K-562 tumor target cells [effector: target (E:T) at 1:1] or PMA/lonomycin (1 μg/mL each) or no-stimulation control with K-562 complete media, respectively. Anti-CD107a or LAMP-1 antibody (1:100, PE/Cy7 conjugated, clone H4A3, from BioLegend®) was added to cells at the start of degranulation assay. Golgi stop (containing Monensin, 1 μM) and Golgi plug (containing Brefeldin A, 4 μg/mL) were added to cells one hour after degranulation assay started and were kept until the end of the 6-hour-degranulation assay. Intracellular staining of GrB (1:40, PE conjugated, clone QA18A28, from BioLegend®) and PRF (1:40, FITC conjugated, clone B-D48, from BioLegend®) were performed with the Fixation/Permeabilization Solution Kit (BD® Biosciences) according to the manufacture's protocol. Cells were stained with fixable viability dye (1:2000) for 20 mins on ice and in dark, and blocked with FcBlock (1:20, diluted in 1× Perm/Wash buffer, Human truStain FcX from BioLegend®) for 5 mins at room temperature and in dark before intracellular staining. Cell gating and percentage of population quantification was based on no-stimulation control. For kinetics of degranulation assay, measurements were taken over three hours at 15 mins, 30 mins, 60 mins, 120 mins and 180 mins, with L598 (30 μM, three days) treated group and vehicle control group under the condition of tumor target cell K-562 stimulation (E: T at 1:1) or no stimulation. Intracellular cytolytic granule contents GrA, GrB and PRF were measured as mentioned previously.

In experiment [4] the test system is JAK/STAT signaling in NK-92 cells. Put plainly: JAK/STAT signaling Western blot and IL-2 stimulation assay in NK-92. Format: cell-based, Human. The protocol: (§2) Total cell lysate was prepared with modified RIPA buffer (1M Tris-HCl (pH 7.5), 5M NaCl, 0.25% sodium deoxycholate, 10% NP-40 and 10 mM sodium fluoride) supplemented with ethylenediaminetetraacetic acid (EDTA)-free protease inhibitor (Roche™) and 2 mM sodium orthovanadate (Sigma-Aldrich™). Protein levels were quantified by bicinchoninic acid (BCA) assay. Protein lysate was separated by 10% SDS-PAGE and Western analysis was performed using primary antibodies listed in the tables below followed with horseradish peroxidase (HRP, 1:10,000, Jackson ImmunoResearch™) conjugated secondary antibodies.
For cytokine stimulation assay, NK-92 cells were pre-treated with L598 (30 μM) or vehicle control for three days. Before IL-2 stimulation, NK-92 cells were washed once with serum depleted cell media (no IL-2) and were starved for six hours in presence of L598 or vehicle control. After starvation, NK-92 cells were stimulated with IL-2 across a gradient concentration ranging from 0 to 90 IU/mL for 15 mins at 37° C. After incubation, cells were directly lysed with 2× concentrated TNE buffer and then boiled in 1× Laemmli Buffer to prepare cell lysates. Two independent experiments were performed.

Experiment [5] relates to NK-92 cells. Put plainly: Multi-response analysis: cytokine production with degranulation in NK-92. Format: cell-based, Human. The following applies: 30 μM three days, tumor cell or PMA and ionomycin stimulation. The method, then:
as §1, with “For kinetics of degranulation assay, measurements were taken over three hours at 15 mins, 30 mins, 60 mins, 120 mins and 180 mins, with L598 (30 μM, three days) treated group and vehicle control group under the condition of tumor target cell K-562 stimulation (E: T at 1:1) or no stimulation.” left out

Experiment [6] relates to SMAD2, SOCS1, SOCS3 in NK-92 cells. Put plainly: Western blot of phospho-SMAD2, SOCS1 and SOCS3 in NK-92. The experiment is classed as cell-based, Human. The conditions noted are these: with inhibitor treatment. The protocol: as §2
Experiment [7] concerns PTPN1 and PTPN2 catalytic domain. The following applies: Montalibet J, et al., J Biol Chem 2006; cited from earlier work.
The mark [8] stands for this setting: PMA/ionomycin 1 μg/mL each, six hours, vs control.
[9] abbreviates: three-hours cytolytic assay, K-562 stimulation.

As to “7-bromo-6-phosphono(difluoro-methyl)-3-napthalenonitrile [L598]”, in experiment [1], the “NK-92 cytolysis towards NK resistant target cells Reh” value is reported as “did not improve”. Besides, the NK-92 proliferation entry in experiment [2] is “proliferate slightly faster”. Moreover, the “percentage of degranulating NK-92 cells (surface CD107a and intracellular lytic granules)” value in experiment [3] (30 μM pre-treatment, K-562 stimulation six hours, vs control) is listed as “smaller percentage”. In experiment [3] (K-562 stimulation E:T 1:1, vs control cells), the “dead tumor target K-562 cells in degranulation assay” value is “more tumor target K-562 cells were found dead”. Moreover, in experiment [3] (setting [8]), the “degranulated NK-92 cells (CD107a+, Perforin− or Granzyme B−) under PMA and ionomycin” value was “less”; the “degranulating NK-92 cells under PMA and ionomycin” value was “more”. Moreover, the “percentage of CD107a−, Perforin+ or CD107a−, Granzyme B+ population” value in experiment [3] (after six-hours K-562 stimulation, vs control) was “larger percentage”. In experiment [3] (setting [9]), the “time from which granzyme B is degranulated more rapidly” value turned out to be 60 min and the “time from which perforin is degranulated more rapidly” value came to 30 min. The “sensitivity to low dosage short-term IL-2 stimulation (phospho-STAT1, 3, 4, 5)” value in experiment [4] (30 μM three days, starved six hours, IL-2 below 100 IU/mL, 15 mins) is “more sensitive”. Also, the “minimum IL-2 at which increased STAT5 phosphorylation is detectable” value in experiment [4] (IL-2 stimulation 15 mins after starvation) amounted to 30 IU/mL. The “total protein expression of STAT members” value in experiment [4] (IL-2 stimulation assay) is recorded as “might upregulate”. Moreover, in experiment [4] (TGF-β1 and IL-2 stimulation condition), the “phosphorylation of STAT1, STAT3 and STAT4 under TGF-β1 and IL-2” value is on record as “retained enhanced phosphorylation”. For the same substance, the “basal phosphorylation of STAT1, STAT3 and STAT4” value in experiment [4] (after six-hours serum and cytokine starvation in presence of inhibitor) was “increased”. Further, the “phosphorylation of STAT2 and STAT6” value in experiment [4] (regular cell culture, inhibitor titration, three days) was “relatively stable”. Besides, the “phosphorylation of STAT1, STAT3, STAT4 and STAT5” value in experiment [4] (regular cell culture, inhibitor titration, three days, dosage dependent) was “increased phosphorylation”. Also, the “percentages of CD107a+, IFN-γ+ and CD107a+, TNF-α+ cells” value in experiment [5] is “larger percentages”. In experiment [6], the “TGF-β1 activated phosphorylation of SMAD2” value is “did not change significantly”; the “expression of SOCS1 and SOCS3” value was “did not change”. For the same substance, the “binding specificity for PTPN1 and PTPN2 over other protein tyrosine phosphatases” value in experiment [7] is reported as “binds specifically to their catalytic domain but no other protein tyrosine phosphatases”.
